Reference: the supplement of paper PMC4862054

Each molecule was assayed on MDA-MB-468 (assay: drug sensitivity score (DSS), CellTox Green (DSS (AUC-based score)); higher = stronger drug effect (viability inhibition or cytotoxicity); extreme values may be limits of the assay). Conditions: incubation time: 72 h.
Method in brief: (§1)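 After 72 h of incubation in 384-well plates with compound at 5 concentrations (10-fold steps, 10,000-fold range set per compound), breast cancer cell lines seeded in 20 µl suspension were read first for CellTox Green fluorescence at 485/520 nm. CellTiter-Glo luminescence was measured next, after 10 min at room temperature. Normalisation on each plate used 0.1 % DMSO and a positive kill control, and the drug sensitivity score was computed from the area under the fitted dose-response curve.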
`CNC(=O)c1ccccc1Sc1ccc2c(/C=C/c3ccccn3)n[nH]c2c1` [Axitinib] was tested, and the drug sensitivity score was 0.
In the case of `COc1cc(Nc2c(C#N)cnc3cc(OCCCN4CCN(C)CC4)c(OC)cc23)c(Cl)cc1Cl` [Bosutinib], the drug sensitivity score is reported as 5.02.
Work on `CCN(CC)CCCC(C)Nc1ccnc2cc(Cl)ccc12` (stereo not given) [Chloroquine] yielded a drug sensitivity score of 27.3.
`CC1(COc2ccc3c(c2)ncn3-c2ccc3cccc(N4CCC(N)CC4)c3n2)COC1` [Crenolanib] was tested, and the drug sensitivity score was 0.
For `CC(C)(C)c1nc(-c2cccc(NS(=O)(=O)c3c(F)cccc3F)c2F)c(-c2ccnc(N)n2)s1` [Dabrafenib], the drug sensitivity score was 0.
In the case of `Cc1nc(C(=O)NCC(=O)O)c(O)c2ccc(Oc3ccccc3)cc12` [FG-4592], the drug sensitivity score is reported as 0.
With `CC(C)(C)NC(=O)[C@H]1CC[C@H]2[C@@H]3CC[C@H]4NC(=O)C=C[C@]4(C)[C@H]3CC[C@]12C` [Finasteride] the drug sensitivity score was 0.
`Nc1ccn([C@@H]2O[C@H](CO)[C@@H](O)C2(F)F)c(=O)n1` [Gemcitabine] gave a drug sensitivity score of 19.7.
`O=C(O)CNC(=O)c1c(O)c2ccccc2n(Cc2ccccc2)c1=O` [IOX-2] was tested, and the drug sensitivity score was 0.
Molecule `CC(=O)[C@]1(O)Cc2c(O)c3c(c(O)c2[C@@H](O[C@H]2C[C@H](N)[C@H](O)[C@H](C)O2)C1)C(=O)c1ccccc1C3=O` [Idarubicin] has a drug sensitivity score of 10.5.
`C/C(=C\c1csc(C)n1)[C@@H]1C[C@@H]2O[C@]2(C)CCC[C@H](C)[C@H](O)[C@@H](C)C(=O)C(C)(C)[C@@H](O)CC(=O)N1` [Ixabepilone] showed a drug sensitivity score of 1.3.
`C=CCn1c(=O)c2cnc(Nc3ccc(N4CCN(C)CC4)cc3)nc2n1-c1cccc(C(C)(C)O)n1` [MK1775] gave a drug sensitivity score of 11.1.
For `CN(Cc1cnc2nc(N)nc(N)c2n1)c1ccc(C(=O)N[C@@H](CCC(=O)O)C(=O)O)cc1` [Methotrexate], the drug sensitivity score was 0.
`CO[C@@]12[C@H](COC(N)=O)C3=C(C(=O)C(C)=C(N)C3=O)N1C[C@@H]1N[C@@H]12` [Mitomycin C] gave a drug sensitivity score of 27.4.
In the case of `CCNC(=O)c1noc(-c2cc(C(C)C)c(O)cc2O)c1-c1ccc(CN2CCOCC2)cc1` [NVP-AUY922], the drug sensitivity score is reported as 0.
`Cc1cn(-c2cc(NC(=O)c3ccc(C)c(Nc4nccc(-c5cccnc5)n4)c3)cc(C(F)(F)F)c2)cn1` [Nilotinib] showed a drug sensitivity score of 0.
With `CC[C@H](CO)Nc1nc(NCc2ccccc2)c2ncn(C(C)C)c2n1` [Seliciclib] the drug sensitivity score was 0.
`O=[N+]([O-])c1ccc2c(c1)S(=O)(=O)C=C2` [Stattic] showed a drug sensitivity score of 19.8.
Molecule `O=C(CCCCCCC(=O)Nc1ccccc1)NO` [Vorinostat] has a drug sensitivity score of 2.22.

These molecules were tested on MCF-10A in the same assay as above. Conditions: incubation time: 72 h.
Method in brief: as §1
`CNC(=O)c1ccccc1Sc1ccc2c(/C=C/c3ccccn3)n[nH]c2c1` [Axitinib] was tested, and the drug sensitivity score was 0.
`COc1cc(Nc2c(C#N)cnc3cc(OCCCN4CCN(C)CC4)c(OC)cc23)c(Cl)cc1Cl` [Bosutinib] showed a drug sensitivity score of 7.8.
`CCN(CC)CCCC(C)Nc1ccnc2cc(Cl)ccc12` (stereo not given) [Chloroquine] gave a drug sensitivity score of 7.9.
`CC1(COc2ccc3c(c2)ncn3-c2ccc3cccc(N4CCC(N)CC4)c3n2)COC1` [Crenolanib] showed a drug sensitivity score of 5.3.
In the case of `CC(C)(C)c1nc(-c2cccc(NS(=O)(=O)c3c(F)cccc3F)c2F)c(-c2ccnc(N)n2)s1` [Dabrafenib], the drug sensitivity score is reported as 0.
`Cc1nc(C(=O)NCC(=O)O)c(O)c2ccc(Oc3ccccc3)cc12` [FG-4592] gave a drug sensitivity score of 0.
`CC(C)(C)NC(=O)[C@H]1CC[C@H]2[C@@H]3CC[C@H]4NC(=O)C=C[C@]4(C)[C@H]3CC[C@]12C` [Finasteride] gave a drug sensitivity score of 0.
For `Nc1ccn([C@@H]2O[C@H](CO)[C@@H](O)C2(F)F)c(=O)n1` [Gemcitabine], the drug sensitivity score was 0.
For `O=C(O)CNC(=O)c1c(O)c2ccccc2n(Cc2ccccc2)c1=O` [IOX-2], the drug sensitivity score was 0.
Work on `CC(=O)[C@]1(O)Cc2c(O)c3c(c(O)c2[C@@H](O[C@H]2C[C@H](N)[C@H](O)[C@H](C)O2)C1)C(=O)c1ccccc1C3=O` [Idarubicin] yielded a drug sensitivity score of 1.59.
With `C/C(=C\c1csc(C)n1)[C@@H]1C[C@@H]2O[C@]2(C)CCC[C@H](C)[C@H](O)[C@@H](C)C(=O)C(C)(C)[C@@H](O)CC(=O)N1` [Ixabepilone] the drug sensitivity score was 0.
For `C=CCn1c(=O)c2cnc(Nc3ccc(N4CCN(C)CC4)cc3)nc2n1-c1cccc(C(C)(C)O)n1` [MK1775], the drug sensitivity score was 8.71.
`CN(Cc1cnc2nc(N)nc(N)c2n1)c1ccc(C(=O)N[C@@H](CCC(=O)O)C(=O)O)cc1` [Methotrexate] was tested, and the drug sensitivity score was 0.
`CO[C@@]12[C@H](COC(N)=O)C3=C(C(=O)C(C)=C(N)C3=O)N1C[C@@H]1N[C@@H]12` [Mitomycin C] showed a drug sensitivity score of 0.
`CCNC(=O)c1noc(-c2cc(C(C)C)c(O)cc2O)c1-c1ccc(CN2CCOCC2)cc1` [NVP-AUY922] showed a drug sensitivity score of 13.6.
With `Cc1cn(-c2cc(NC(=O)c3ccc(C)c(Nc4nccc(-c5cccnc5)n4)c3)cc(C(F)(F)F)c2)cn1` [Nilotinib] the drug sensitivity score was 0.
Work on `CC[C@H](CO)Nc1nc(NCc2ccccc2)c2ncn(C(C)C)c2n1` [Seliciclib] yielded a drug sensitivity score of 0.
`O=[N+]([O-])c1ccc2c(c1)S(=O)(=O)C=C2` [Stattic] showed a drug sensitivity score of 19.5.
With `O=C(CCCCCCC(=O)Nc1ccccc1)NO` [Vorinostat] the drug sensitivity score was 0.

These molecules were tested on Hs578T in the same assay as above. Conditions: incubation time: 72 h.
Method in brief: as §1
Molecule `CNC(=O)c1ccccc1Sc1ccc2c(/C=C/c3ccccn3)n[nH]c2c1` [Axitinib] has a drug sensitivity score of 0.
`COc1cc(Nc2c(C#N)cnc3cc(OCCCN4CCN(C)CC4)c(OC)cc23)c(Cl)cc1Cl` [Bosutinib] showed a drug sensitivity score of 3.59.
`CCN(CC)CCCC(C)Nc1ccnc2cc(Cl)ccc12` (stereo not given) [Chloroquine] showed a drug sensitivity score of 8.48.
`CC1(COc2ccc3c(c2)ncn3-c2ccc3cccc(N4CCC(N)CC4)c3n2)COC1` [Crenolanib] showed a drug sensitivity score of 0.
`CC(C)(C)c1nc(-c2cccc(NS(=O)(=O)c3c(F)cccc3F)c2F)c(-c2ccnc(N)n2)s1` [Dabrafenib] showed a drug sensitivity score of 18.1.
`Cc1nc(C(=O)NCC(=O)O)c(O)c2ccc(Oc3ccccc3)cc12` [FG-4592] was tested, and the drug sensitivity score was 0.
In the case of `CC(C)(C)NC(=O)[C@H]1CC[C@H]2[C@@H]3CC[C@H]4NC(=O)C=C[C@]4(C)[C@H]3CC[C@]12C` [Finasteride], the drug sensitivity score is reported as 2.04.
With `Nc1ccn([C@@H]2O[C@H](CO)[C@@H](O)C2(F)F)c(=O)n1` [Gemcitabine] the drug sensitivity score was 0.
`O=C(O)CNC(=O)c1c(O)c2ccccc2n(Cc2ccccc2)c1=O` [IOX-2] showed a drug sensitivity score of 0.
`CC(=O)[C@]1(O)Cc2c(O)c3c(c(O)c2[C@@H](O[C@H]2C[C@H](N)[C@H](O)[C@H](C)O2)C1)C(=O)c1ccccc1C3=O` [Idarubicin] gave a drug sensitivity score of 0.
`C/C(=C\c1csc(C)n1)[C@@H]1C[C@@H]2O[C@]2(C)CCC[C@H](C)[C@H](O)[C@@H](C)C(=O)C(C)(C)[C@@H](O)CC(=O)N1` [Ixabepilone] was tested, and the drug sensitivity score was 0.
Work on `C=CCn1c(=O)c2cnc(Nc3ccc(N4CCN(C)CC4)cc3)nc2n1-c1cccc(C(C)(C)O)n1` [MK1775] yielded a drug sensitivity score of 9.43.
With `CN(Cc1cnc2nc(N)nc(N)c2n1)c1ccc(C(=O)N[C@@H](CCC(=O)O)C(=O)O)cc1` [Methotrexate] the drug sensitivity score was 7.51.
`CO[C@@]12[C@H](COC(N)=O)C3=C(C(=O)C(C)=C(N)C3=O)N1C[C@@H]1N[C@@H]12` [Mitomycin C] gave a drug sensitivity score of 0.971.
`CCNC(=O)c1noc(-c2cc(C(C)C)c(O)cc2O)c1-c1ccc(CN2CCOCC2)cc1` [NVP-AUY922] gave a drug sensitivity score of 6.88.
`Cc1cn(-c2cc(NC(=O)c3ccc(C)c(Nc4nccc(-c5cccnc5)n4)c3)cc(C(F)(F)F)c2)cn1` [Nilotinib] was tested, and the drug sensitivity score was 0.546.
With `CC[C@H](CO)Nc1nc(NCc2ccccc2)c2ncn(C(C)C)c2n1` [Seliciclib] the drug sensitivity score was 1.26.
With `O=[N+]([O-])c1ccc2c(c1)S(=O)(=O)C=C2` [Stattic] the drug sensitivity score was 18.1.
For `O=C(CCCCCCC(=O)Nc1ccccc1)NO` [Vorinostat], the drug sensitivity score was 4.59.

These molecules were tested on MFM-223 in the same assay as above. Conditions: incubation time: 72 h.
Method in brief: as §1
For `CNC(=O)c1ccccc1Sc1ccc2c(/C=C/c3ccccn3)n[nH]c2c1` [Axitinib], the drug sensitivity score was 0.
With `COc1cc(Nc2c(C#N)cnc3cc(OCCCN4CCN(C)CC4)c(OC)cc23)c(Cl)cc1Cl` [Bosutinib] the drug sensitivity score was 0.
With `CCN(CC)CCCC(C)Nc1ccnc2cc(Cl)ccc12` (stereo not given) [Chloroquine] the drug sensitivity score was 9.2.
Work on `CC1(COc2ccc3c(c2)ncn3-c2ccc3cccc(N4CCC(N)CC4)c3n2)COC1` [Crenolanib] yielded a drug sensitivity score of 0.
For `CC(C)(C)c1nc(-c2cccc(NS(=O)(=O)c3c(F)cccc3F)c2F)c(-c2ccnc(N)n2)s1` [Dabrafenib], the drug sensitivity score was 0.
Work on `Cc1nc(C(=O)NCC(=O)O)c(O)c2ccc(Oc3ccccc3)cc12` [FG-4592] yielded a drug sensitivity score of 0.
Work on `CC(C)(C)NC(=O)[C@H]1CC[C@H]2[C@@H]3CC[C@H]4NC(=O)C=C[C@]4(C)[C@H]3CC[C@]12C` [Finasteride] yielded a drug sensitivity score of 3.14.
With `Nc1ccn([C@@H]2O[C@H](CO)[C@@H](O)C2(F)F)c(=O)n1` [Gemcitabine] the drug sensitivity score was 0.
For `O=C(O)CNC(=O)c1c(O)c2ccccc2n(Cc2ccccc2)c1=O` [IOX-2], the drug sensitivity score was 0.
`CC(=O)[C@]1(O)Cc2c(O)c3c(c(O)c2[C@@H](O[C@H]2C[C@H](N)[C@H](O)[C@H](C)O2)C1)C(=O)c1ccccc1C3=O` [Idarubicin] gave a drug sensitivity score of 1.56.
With `C/C(=C\c1csc(C)n1)[C@@H]1C[C@@H]2O[C@]2(C)CCC[C@H](C)[C@H](O)[C@@H](C)C(=O)C(C)(C)[C@@H](O)CC(=O)N1` [Ixabepilone] the drug sensitivity score was 0.
Work on `C=CCn1c(=O)c2cnc(Nc3ccc(N4CCN(C)CC4)cc3)nc2n1-c1cccc(C(C)(C)O)n1` [MK1775] yielded a drug sensitivity score of 5.91.
Molecule `CN(Cc1cnc2nc(N)nc(N)c2n1)c1ccc(C(=O)N[C@@H](CCC(=O)O)C(=O)O)cc1` [Methotrexate] has a drug sensitivity score of 0.
`CO[C@@]12[C@H](COC(N)=O)C3=C(C(=O)C(C)=C(N)C3=O)N1C[C@@H]1N[C@@H]12` [Mitomycin C] was tested, and the drug sensitivity score was 1.79.
Molecule `CCNC(=O)c1noc(-c2cc(C(C)C)c(O)cc2O)c1-c1ccc(CN2CCOCC2)cc1` [NVP-AUY922] has a drug sensitivity score of 0.
`Cc1cn(-c2cc(NC(=O)c3ccc(C)c(Nc4nccc(-c5cccnc5)n4)c3)cc(C(F)(F)F)c2)cn1` [Nilotinib] was tested, and the drug sensitivity score was 0.
Molecule `CC[C@H](CO)Nc1nc(NCc2ccccc2)c2ncn(C(C)C)c2n1` [Seliciclib] has a drug sensitivity score of 1.03.
Work on `O=[N+]([O-])c1ccc2c(c1)S(=O)(=O)C=C2` [Stattic] yielded a drug sensitivity score of 16.3.
With `O=C(CCCCCCC(=O)Nc1ccccc1)NO` [Vorinostat] the drug sensitivity score was 0.

Each molecule was assayed on BT-474 in the same assay as above. Conditions: incubation time: 72 h.
Method in brief: as §1
In the case of `CNC(=O)c1ccccc1Sc1ccc2c(/C=C/c3ccccn3)n[nH]c2c1` [Axitinib], the drug sensitivity score is reported as 0.
Molecule `COc1cc(Nc2c(C#N)cnc3cc(OCCCN4CCN(C)CC4)c(OC)cc23)c(Cl)cc1Cl` [Bosutinib] has a drug sensitivity score of 5.18.
`CCN(CC)CCCC(C)Nc1ccnc2cc(Cl)ccc12` (stereo not given) [Chloroquine] showed a drug sensitivity score of 14.7.
For `CC1(COc2ccc3c(c2)ncn3-c2ccc3cccc(N4CCC(N)CC4)c3n2)COC1` [Crenolanib], the drug sensitivity score was 5.99.
Molecule `CC(C)(C)c1nc(-c2cccc(NS(=O)(=O)c3c(F)cccc3F)c2F)c(-c2ccnc(N)n2)s1` [Dabrafenib] has a drug sensitivity score of 0.
With `Cc1nc(C(=O)NCC(=O)O)c(O)c2ccc(Oc3ccccc3)cc12` [FG-4592] the drug sensitivity score was 0.
For `CC(C)(C)NC(=O)[C@H]1CC[C@H]2[C@@H]3CC[C@H]4NC(=O)C=C[C@]4(C)[C@H]3CC[C@]12C` [Finasteride], the drug sensitivity score was 0.
Molecule `Nc1ccn([C@@H]2O[C@H](CO)[C@@H](O)C2(F)F)c(=O)n1` [Gemcitabine] has a drug sensitivity score of 0.
In the case of `O=C(O)CNC(=O)c1c(O)c2ccccc2n(Cc2ccccc2)c1=O` [IOX-2], the drug sensitivity score is reported as 0.
